Measured values: patent US7642269B2, “Pyrrolo[3,2-B]pyridine derivatives and processes for the preparation thereof” (Yuhan Corporation, priority 2005, dated 2010)
pIC50: −log10 of the molar value. Structures can show the parent of a compound that is named as a salt.

Legend:
[1] = test system: basal gastric acid secretion; assay: Inhibitory effects on basal gastric acid secretion in pylorus-ligated rats (Shay's rat model); format: in vivo, Sprague Dawley (SD) rats; conditions: oral, one hour before pylorus ligation, total acid output 5 hours after ligation, male SD rats
Description: Inhibitory effects of the compounds of the present invention on basal gastric acid secretion were performed according to Shay's rat model (Shay, H., et al., 1945, gastroenterology, 5, 43-61). Male Sprague Dawley (SD) rats (200±10 g body weight) were divided into 3 groups (n=5) and fasted for 24 hours with free access to water. Control group was orally administered with 0.5% methylcellulose alone and the other groups were orally administered with test compounds suspended in 0.5% methyl-cellulose solution at doses of 1, 3 and 10 mg/kg/5 ml one hour before pylorus ligation. Under ether anesthesia, the abdomens of the rats were incised and then the pylorus was ligated. 5 hours after ligation, the animals were sacrificed, and the gastric contents were collected. The collected contents were centrifuged at 1,000×g for 10 minutes to obtain the gastric juice. Total acid output was measured by 0.01N NaOH volume (ueq/ml) for automatic titration of the gastric juice to pH 7.0 and the ED50s of test compounds were calculated using the Litchfield-Wilcoxon method. % inhibitory activity was calculated from the following equation and the results are shown in Table 2. % inhibitory activity of test compound=(total acid output of control group−total acid output of the group treated with test compounds)/total acid output of control group X 100

H^+/K^+-ATPase = molecular target: T1, H^+/K^+-ATPase (Sus scrofa, UniProt P19156); assay: Inhibitory effects on proton pump (H^+/K^+-ATPase) activity, hog gastric vesicles; format: biochemical; conditions: K^+ stimulated H^+/K^+-ATPase activity, hog gastric vesicle, Pi measured at 620 nm
T1 construct: used as an enzyme source of the in vitro enzyme reaction assay of proton pump; from tissue; host or cells: hog gastric fundic mucosa (membrane vesicles, lyophilized)
Method in brief: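 Lyophilized hog gastric vesicles in Pipes/Tris pH 6.1 were preincubated 5 min with compounds (1% DMSO), then run with ATP for 30 min at 37 °C. Released phosphate was measured by malachite green at 620 nm; K^+-stimulated activity taken as the difference between reactions with and without K^+.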

T1 sequence (P19156 2-1034 limits assumed): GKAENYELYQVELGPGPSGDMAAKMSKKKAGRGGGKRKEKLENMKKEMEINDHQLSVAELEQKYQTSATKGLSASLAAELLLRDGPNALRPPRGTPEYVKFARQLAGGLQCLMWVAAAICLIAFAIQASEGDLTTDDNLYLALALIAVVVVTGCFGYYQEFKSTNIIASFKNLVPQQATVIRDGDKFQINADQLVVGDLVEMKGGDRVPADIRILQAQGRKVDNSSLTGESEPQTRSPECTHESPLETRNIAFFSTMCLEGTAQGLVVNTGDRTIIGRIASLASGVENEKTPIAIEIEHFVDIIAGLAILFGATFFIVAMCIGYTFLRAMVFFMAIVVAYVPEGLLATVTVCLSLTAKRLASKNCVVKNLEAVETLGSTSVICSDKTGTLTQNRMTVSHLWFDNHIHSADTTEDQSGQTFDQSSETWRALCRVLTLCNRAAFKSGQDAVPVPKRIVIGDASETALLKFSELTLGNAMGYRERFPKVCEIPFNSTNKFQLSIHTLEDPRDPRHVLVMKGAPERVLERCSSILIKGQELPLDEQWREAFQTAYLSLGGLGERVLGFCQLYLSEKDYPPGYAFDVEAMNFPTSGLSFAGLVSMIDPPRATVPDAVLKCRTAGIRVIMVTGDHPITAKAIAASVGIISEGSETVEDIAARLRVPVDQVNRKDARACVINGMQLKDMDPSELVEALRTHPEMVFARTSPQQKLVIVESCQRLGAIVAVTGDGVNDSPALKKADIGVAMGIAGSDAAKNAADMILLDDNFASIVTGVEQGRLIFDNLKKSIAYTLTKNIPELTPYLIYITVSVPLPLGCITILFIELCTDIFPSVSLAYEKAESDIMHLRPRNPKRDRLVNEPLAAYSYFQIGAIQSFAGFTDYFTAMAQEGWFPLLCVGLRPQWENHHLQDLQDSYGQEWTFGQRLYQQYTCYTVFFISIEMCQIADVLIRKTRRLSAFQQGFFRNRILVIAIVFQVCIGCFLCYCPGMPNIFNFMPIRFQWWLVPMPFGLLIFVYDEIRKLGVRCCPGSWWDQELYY
T1 sequence (P18434 whole entry partner): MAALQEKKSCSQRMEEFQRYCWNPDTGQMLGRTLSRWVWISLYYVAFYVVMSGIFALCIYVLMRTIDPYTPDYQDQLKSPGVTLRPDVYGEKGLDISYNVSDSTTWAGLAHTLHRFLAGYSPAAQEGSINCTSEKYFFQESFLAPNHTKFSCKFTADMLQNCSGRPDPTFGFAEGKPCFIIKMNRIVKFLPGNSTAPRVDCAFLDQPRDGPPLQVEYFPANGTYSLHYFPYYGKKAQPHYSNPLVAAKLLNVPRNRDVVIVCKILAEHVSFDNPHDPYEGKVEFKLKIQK

Compound | ED50 [1] [mg/kg] | pIC50 (H^+/K^+-ATPase)
Cc1c(C)n(CC2CC2)c2c(OCc3ccc(Cl)cc3Cl)ccnc12.Cl [Example 139, 1-cyclopropylmethyl-7-(2,4-dichlorobenzyloxy)-2,3-dimethyl-1H-pyrrolo[3,2-b]pyridine hydrochloride] | 1.6 | 7.70
COCCn1c(C)c(C)c2nccc(OCc3ccc(F)cc3)c21.Cl [Example 61, 7-(4-fluorobenzyloxy)-1-(2-methoxyethyl)-2,3-dimethyl-1H-pyrrolo[3,2-b]pyridine hydrochloride] | 3 | 7.00
Cc1c(C)n(CC2CC2)c2c(OCc3ccc(Cl)cc3)ccnc12.Cl [Example 97, 7-(4-chlorobenzyloxy)-1-cyclopropylmethyl-2,3-dimethyl-1H-pyrrolo[3,2-b]pyridine hydrochloride] | 2 | 7.05
Cc1c(C)n(Cc2ccccc2)c2c(OCc3ccc(Cl)cc3)ccnc12.Cl [Example 73, 1-benzyl-7-(4-chlorobenzyloxy)-2,3-dimethyl-1H-pyrrolo[3,2-b]pyridine hydrochloride] | 2.5 | 7.40
C=CCn1c(C)c(C)c2nccc(OCc3ccc(Cl)cc3)c21.Cl [Example 72, 1-allyl-7-(4-chlorobenzyloxy)-2,3-dimethyl-1H-pyrrolo[3,2-b]pyridine hydrochloride] | 2 | 7.52
Cc1c(C)n(CC2CCC2)c2c(OCc3ccc(F)cc3)ccnc12.Cl [Example 55, 1-cyclobutylmethyl-7-(4-fluorobenzyloxy)-2,3-dimethyl-1H-pyrrolo[3,2-b]pyridine hydrochloride] | 1.3 | 7.15
COCCn1c(C)c(C)c2nccc(OCc3ccc(Cl)cc3)c21.Cl [Example 86, 7-(4-chlorobenzyloxy)-1-(2-methoxyethyl)-2,3-dimethyl-1H-pyrrolo[3,2-b]pyridine hydrochloride] | 1.1 | 7.30
COCCn1c(C)c(C)c2nccc(OCc3ccc(F)cc3)c21 [Example 126, 7-(4-fluorobenzyloxy)-1-(2-methoxyethyl)-2,3-dimethyl-1H-pyrrolo[3,2-b]pyridine nitrate] |  | 7.30
CC(=O)OCCn1c(C)c(C)c2nccc(OCc3ccc(Cl)cc3)c21 [Example 85, 1-(2-acetoxyethyl)-7-(4-chlorobenzyloxy)-2,3-dimethyl-1H-pyrrolo[3,2-b]pyridine hydrochloride] |  | 6.77
CC(C)=CCn1c(C)c(C)c2nccc(OCc3ccc(Cl)cc3)c21 [Example 84, 7-(4-chlorobenzyloxy)-2,3-dimethyl-1-(3-methylbut-2-enyl)-1H-pyrrolo[3,2-b]pyridine hydrochloride] |  | 6.41
COCCn1c(C)c(C)c2nccc(OCc3ccc(F)cc3)c21 [Example 133, 7-(4-fluorobenzyloxy)-1-(2-methoxyethyl)-2,3-dimethyl-1H-pyrrolo[3,2-b]pyridine hydrobromide] |  | 7.22
Cc1ccc(Cn2c(C)c(C)c3nccc(OCc4cccc(C)c4)c32)cc1 [Example 156, 2,3-dimethyl-1-(4-methylbenzyl)-7-(3-methylbenzyloxy)-1H-pyrrolo[3,2-b]pyridine hydrochloride] |  | 6.21
COCCn1c(C)c(C)c2nccc(OCc3ccc4c(c3)OCO4)c21 [Example 99, 7-(benzo[1,3]dioxol-5-ylmethoxy)-1-(2-methoxyethyl)-2,3-dimethyl-1H-pyrrolo[3,2-b]pyridine hydrochloride] |  | 6.20
Cc1cccc(Cn2c(C)c(C)c3nccc(N4CCc5ccccc5C4)c32)c1 [Example 12, 1-(3-methylbenzyl)-7-(1,2,3,4-tetrahydroisoquinolin-2-yl)-2,3-dimethyl-1H-pyrrolo[3,2-b]pyridine hydrochloride] |  | 6.01
CCCn1c(C)c(C)c2nccc(OCc3cccc(C)c3)c21 [Example 153, 2,3-dimethyl-7-(3-methylbenzyloxy)-1-propyl-1H-pyrrolo[3,2-b]pyridine hydrochloride] |  | 5.99
Cc1c(C)n(Cc2cccc(F)c2)c2c(OCc3ccc(F)cc3)ccnc12 [Example 40, 1-(3-fluorobenzyl)-7-(4-fluorobenzyloxy)-2,3-dimethyl-1H-pyrrolo[3,2-b]pyridine hydrochloride] |  | 6.72
COCCn1c(C)c(C)c2nccc(OCc3ccc(F)cc3)c21 [Example 127, 7-(4-fluorobenzyloxy)-1-(2-methoxyethyl)-2,3-dimethyl-1H-pyrrolo[3,2-b]pyridine sulfate] |  | 7.40
Cc1ccc(Cn2c(C)c(C)c3nccc(OCc4ccc5c(c4)OCO5)c32)cc1 [Example 114, 7-(benzo[1,3]dioxol-5-ylmethoxy)-1-(4-methylbenzyl)-2,3-dimethyl-1H-pyrrolo[3,2-b]pyridine hydrochloride] |  | 7.15
C=CCn1c(C)c(C)c2nccc(NCc3ccc(F)cc3)c21 [Example 254, N-(1-allyl-2,3-dimethyl-1H-pyrrolo[3,2-b]pyridin-7-yl)-4-fluorobenzylamine hydrochloride] |  | 6.68
Cc1c(C)n(Cc2ccccc2)c2c(NCc3ccc(F)cc3)ccnc12 [Example 261, N-(1-benzyl-2,3-dimethyl-1H-pyrrolo[3,2-b]pyridin-7-yl)-4-fluorobenzylamine hydrochloride] |  | 5.69
COC(=O)Cn1c(C)c(C)c2nccc(OCc3ccc(Cl)cc3Cl)c21 [Example 138, 7-(2,4-dichlorobenzyloxy)-1-methoxycarbonylmethyl-2,3-dimethyl-1H-pyrrolo[3,2-b]pyridine hydrochloride] |  | 6.34
Cc1c(C)n(Cc2ccc(Cl)cc2)c2c(N3CCc4ccccc4C3)ccnc12 [Example 1, 1-(4-chlorobenzyl)-7-(1,2,3,4-tetrahydroisoquinolin-2-yl)-2,3-dimethyl-1H-pyrrolo[3,2-b]pyridine hydrochloride] |  | 6.19
COc1cccc(Cn2c(C)c(C)c3nccc(N4CCc5ccccc5C4)c32)c1 [Example 8, 1-(3-methoxybenzyl)-7-(1,2,3,4-tetrahydroisoquinolin-2-yl)-2,3-dimethyl-1H-pyrrolo[3,2-b]pyridine hydrochloride] |  | 6.36
Cc1cccc(COc2ccnc3c(C)c(C)n(Cc4cccc(F)c4)c23)c1 [Example 146, 1-(3-fluorobenzyl)-2,3-dimethyl-7-(3-methylbenzyloxy)-1H-pyrrolo[3,2-b]pyridine hydrochloride] |  | 5.50
COCCn1c(C)c(C)c2nccc(OCc3ccc(F)cc3)c21 [Example 125, 7-(4-fluorobenzyloxy)-1-(2-methoxyethyl)-2,3-dimethyl-1H-pyrrolo[3,2-b]pyridine p-toluenesulfonate] |  | 7.30
Cc1cccc(Cn2c(C)c(C)c3nccc(OCc4ccc(Cl)cc4)c32)c1 [Example 95, 7-(4-chlorobenzyloxy)-1-(3-methylbenzyl)-2,3-dimethyl-1H-pyrrolo[3,2-b]pyridine hydrochloride] |  | 6.28
COCCn1c(C)c(C)c2nccc(OCc3ccc(F)cc3)c21 [Example 129, 7-(4-fluorobenzyloxy)-1-(2-methoxyethyl)-2,3-dimethyl-1H-pyrrolo[3,2-b]pyridine phosphate] |  | 7.40
C=CCn1c(C)c(C)c2nccc(OCc3ccc(Br)cc3)c21 [Example 220, 1-allyl-7-(4-bromobenzyloxy)-2,3-dimethyl-1H-pyrrolo[3,2-b]pyridine hydrochloride] |  | 7.30
CCCn1c(C)c(C)c2nccc(OCc3ccc(F)cc3)c21.Cl [Example 62, 7-(4-fluorobenzyloxy)-2,3-dimethyl-1-propyl-1H-pyrrolo[3,2-b]pyridine hydrochloride] | 1.6 | 6.96
